Experimental data taken from patent US8299097B2, “Methods for treating inflammatory disorders” (The Brigham and Women's Hospital, Inc., priority 2008, dated 2012).

Experiments:
[1] = system: Cysltr1/Cysltr2^−/− mice; test: LTE4 amplification of pulmonary inflammation in mice lacking both CysLT1R and CysLT2R; type: in vivo, mouse
Protocol: (§1) FIG. 4. […] 4A. […] Clopidogrel (500 μg/ml) was added to the drinking water of the indicated groups of mice for 72 h before the first intranasal dose of LTs, and was maintained throughout the treatment. Results are mean±SEM from at least 9 mice in each group. The experiments were repeated three times with similar results. 4B. PAS stains (left column) from representative mice in the indicated groups showing the effect of clopidigrel on goblet cell metaplasia. Higher magnification images of H & E stains (right) from the same animals showing cellular characteristics of the bronchovascular infiltrates. 4C. Effect of clopidogrel administration on the steady-state expression of IL-13 and MUC5AC mRNA as determined by real-time PCR of whole lung RNA extracted 24 h after the last OVA challenge of the indicated groups. Data are mean±SEM from 4-5 mice/group from a single experiment. Results in a second experiment were similar 4D-4F. […] 4D. Total cell numbers (top), percentages of eosinophils (middle), and total numbers of eosinophils in BAL fluid recovered 24 h after the last challenge with OVA. 4E. Goblet cell metaplasia (top) and representative PAS stains (bottom) from wild-type and p2ry12^−/− mice subjected to the same protocol. 4E. Inflammation scores from the same mice. Data in 4D-4F are from 4 mice per group. […] Quantitative assessment of bronchovascular inflammation as determined by H & E stains. […]

[2] = system: p2ry12^−/− mice; test: LTE4 amplification of pulmonary inflammation in p2ry12^−/− mice and C57BL/6 controls; type: in vivo, mouse
Protocol: as §1

[3] = system: human blood platelets; test: Platelet activation, cytofluorographic detection of P-selectin (CD62P); type: cell-based; conditions: ADP 100 μM or LTE4 1 μM, 10 min
Protocol: FIG. 6. […] Each antibody (Ab) was diluted in 50 μl of sterile saline. […] 6A. PAS stains of the lungs of representative mice treated with isotype control (top) or with an anti-CD42 platelet-depleting antibody (bottom). 6B. Inflammation (top) and goblet cell metaplasia (bottom) in the lungs of mice treated with the indicated LT and antibody. A cohort of mice was treated with clopidogrel as indicated. Results in 6B are from a single experiment with 5 mice per group. […] 6C. […] Results are from a single experiment performed three times on different donors.
Platelets accumulate in the lungs of asthmatic individuals (Jeffery, P. K., et al. 1989. Am. Rev. Respir. Dis. 140:1745-1753), and are also recruited to the lungs of ovalbumin sensitized and challenged mice by an IgE-dependent mechanism (Pitchford, S. C., et al. 2008. Am. J. Respir. Crit. Care Med. 177:604-612).

[4] = system: LAD2 cells; test: Calcium flux of LAD2 cells stimulated with LTD4 or LTE4; type: cell-based, human; conditions: agonists 500 nM; MK571 1 μM, 2-MesAMP 100 μM
Protocol: FIG. 2. Requirement for P2Y12 receptors in LTE4-mediated LAD2 cell activation. 2A. Calcium flux of LAD2 cells stimulated with the indicated agonists (500 nM) in the presence or absence of the P2Y12 receptor-selective antagonist 2-MeSAMP (100 μM). […] 2B. […] Cells sensitized overnight with IgE and challenged with anti-IgE were used as the positive control. 2C. […] Results in 2B and 2C are mean±SEM from three independent experiments each. 2D. Effect of shRNA-mediated knockdown of P2Y12 receptor mRNA expression by LAD2 cells.
Pre-treatment of the LAD2 cells with 2-MesAMP blocked the LTE4-mediated increment in MIP-1β production by >50% (FIG. 2B). […] To exclude potential off-target effects of the inhibitors, samples of LAD2 cells were transfected with lentiviruses encoding a P2Y12 sequence-specific shRNA, a CysLT1R-specific shRNA, or an empty vector control before stimulation. […] LTE4- and LTD4-dependent production of PGD2 were abrogated by the knockdowns of P2Y12 and CysLT1R, respectively (FIG. 2C, bottom). Neither GPCR knockdown altered MIP-1β generation or PGD2 production in response to IgE-anti-IgE (FIG. 2C). LTE4-mediated MIP-1β generation (FIG. 9A) and ERK activation (FIG. 9B) were not altered by treatment of LAD2 cells with apyrase to degrade extracellular ADP.
LAD2 cells (0.5-1×10^6/sample) were washed and labeled with fura 2-AM for 30 min at 37° C. […]

CCCCC/C=C\C\C=C/C=C/C=C/[C@@H](SC[C@H](N)C(=O)O)[C@@H](O)CCCC(=O)O [LTE4]
potentiation of OVA-induced BAL fluid eosinophilia, goblet cell metaplasia and inflammation [1]: completely intact | potentiation of BAL fluid eosinophilia, goblet cell metaplasia and bronchovascular infiltration ([2]; WT C57BL/6 controls): potentiated | potentiation of BAL fluid eosinophilia, goblet cell metaplasia and bronchovascular infiltration ([2]; p2ry12^−/− mice): severely blunted | CD62P expression by platelets [3]: no CD62P expression was detected

CN(C)C(=O)CCSC(SCCC(=O)O)c1cccc(/C=C/c2ccc3ccc(Cl)cc3n2)c1 (centres unmarked) [MK571]
effect on LTD4- or LTE4-mediated calcium flux [4]: blocked calcium responses
